From patent publication US12630532B2, “Indole-substituted quinolines and their combination with Plk1 inhibitors for the treatment of cancer” (UNIVERSITY OF KENTUCKY RESEARCH FOUNDATION, priority 2021, dated 2026)

Experiments:
LS174T cells = assay: Cell proliferation inhibition assay (5 days, cell counting); format: cell-based
Description: (§1) Cell proliferation inhibition assays were done following a previous report (32). Cancer cells were seeded into 24-well plates at a density of 20,000 cells per well in 1 mL of culture medium and were cultured overnight at 37° C. Compounds and the vehicle control (DMSO) were added to the cells. After 5 days, the medium was removed, and 100 μL of trypsin was added. The cells were resuspended in phosphate-buffered saline (PBS) and were counted by Vi-CELL XR 2.03 (Beckman Coulter, Inc. USA). The ratio R of the number of viable cells in the compound treatment group to the number of viable cells in DMSO treatment group was taken as relative growth, and the percentage growth inhibition was calculated as (1−R)*100.

TOPFlash Wnt reporter = TOPFlash Wnt reporter assay in stable HEK293T cells; format: cell-based; details: 24 hours treatment
Description: Wnt reporter assay was described previously (25). We subcloned Super 8×TOPFlash (provided by Professor Randall Moon, University of Washington) into the pGL4.83 [hRlucP/Puro] Vector and transfected it into HEK293T cells. A stable HEK293T cell line containing the TOPFlash reporter was established using puromycin selection (25). To assess if compounds of interest blocked the downstream signaling transduction pathway of β-catenin, the stable reporter cells were seeded to a 12-well plate and treated with 25 mM LiCl to stabilize β-catenin for 16 hours to activate Wnt signaling and then candidate compounds at predetermined concentrations for another 24 hours. The cells were lysed and centrifuged to obtain supernatants which were analyzed by FB 12 Single Tube Luminometer by Titertek-Berthold (Berthold Detection Systems GmbH, Elsässerstr, Germany).

[1] = tested on: mitochondrial ETC (electron transport chain); assay: Seahorse assay (OCR) in Beas-2B cells; format: cell-based
Description: (§2) Seahorse assays were carried out following a published procedure (25). Briefly, 2.5×10^4 cells in 80 μL of medium were seeded in XF96 Cell Culture microplate for all experiments. On the next day, cell culture media were replaced with Seahorse XF modified media. Cells were treated with 1 μM of oligomycin A, 1.0 μM FCCP and mixture of 1.0 μM of rotenone and 1.0 μM of antimycin A in standard mitochondrial stress test conditions. To determine the uncoupler effects, FCCP was replaced with an equal volume of DMSO, or a compound to be tested in DMSO solution.

[2] = tested on: mitochondrial ETC (electron transport chain); assay: Seahorse assay (OCR) in LS174T cells; format: cell-based
Description: as §2

Plk1 = assay: Western blotting of cell signaling pathways in LS174T cells; format: cell-based; details: LS174T colon cancer cells, 24 hours
Description: (§3) Western blotting were performed according to previous procedures (25). Cells were split into 12-well plates. After 24 hours, compounds at indicated final concentrations were added to each well for another 24 hours unless otherwise noted. DMSO was used as a control. Cells were lysed in the appropriate volume of lysis buffer: 50 mM HEPES, 100 mM NaCl, 2 mM EDTA, 1% (v/v) glycerol, 50 mM NaF, 1 mM Na3VO4, 1% (v/v) Triton X-100, with protease inhibitors. Cell lysates were centrifuged, and supernatants were mixed with 6× protein loading buffer and boiled. The obtained samples were analyzed with standard western blotting methods with indicated antibodies.

Solubility comparison = format: physicochemical; details: relative comparison
[3] = tested on: mitochondrial ETC complex I; assay: Mitochondrial ETC complex activity measurements using PMP-permeabilized cells; format: cell-based
Description: Mitochondrial ETC complex activity measurements were taken using the Agilent Seahorse Assay with XF PMP (Agilent, Santa Clara, CA) following manufacturer's instructions. Adherent monolayer cells were gently washed with mitochondrial assay solution (MAS) (220 mM mannitol, 70 mM sucrose, 10 mM KH2PO4, 5 mM MgCl2, 2 mM HEPES, 1 mM EGTA, and 0.2% (w/v) fatty acid free BSA) and cell growth media was replaced with MAS supplemented with 4 mM adenosine diphosphate (ADP), 10 mM pyruvate, and 1 nM PMP. Following calibration, the assay was immediately performed by measuring baseline with two cycles of 0.5 min mixing, 0.5 min waiting, and 2 min measuring. After baseline measurements, sequential injections of DMSO, compounds of interest or 2 μM rotenone, 10 mM succinate, 2 μM antimycin A, and a combination of 10 mM ascorbate and 100 μM TMPD were also performed with each followed by two cycles of 0.5 min mixing, 0.5 min waiting, and 2 min measuring. Data were then normalized to cell counts using the Biotek Cytation 1 (BioTek Instruments, Winooski, VT, USA).

[4] = tested on: sarcoma cell line SK-LMS-1; assay: Cell proliferation inhibition assay; format: cell-based; details: SK-LMS-1, 5 days (FIG. 1B)
Description: as §1

[5] = tested on: liver cancer cell line HepG2; assay: Cell proliferation inhibition assay; format: cell-based; details: HepG2, 5 days (FIG. 1B)
Description: as §1

[6] = tested on: prostate cancer cell line PC-3; assay: Cell proliferation inhibition assay; format: cell-based; details: PC-3, 5 days (FIG. 1B)
Description: as §1

AMPK [7] = assay: AMPK signaling (western blotting) in Beas-2B cells; format: cell-based; details: compared with CRC cells
Description: as §3

AMPK [8] = assay: AMPK activation (western blotting, pAMPK/pACC) in LS174T cells; format: cell-based
Description: as §3

[9] = tested on: mouse colon cancer organoids; assay: Colon cancer organoids from Apc^f/+/Kras^LSL-G12D/Villin-Cre mouse model; format: cell-based
Description: The colon cancer organoids were isolated from Apc^f/+/Kras^LSL-G12D/Villin-Cre mouse model (38). Using 48-well drug screening to assess how compounds affected organoid colony formation, the Matrigel containing organoids was digested by 300 μL dispase. The gel was removed by 1,000×5 min spinning. The organoids were digested into single cells by 1 mL Trypsin and washed with 10 mL of ADF12. For each well, 80 μL of Matrigel was added to the bottom and 1000 cells in 60 μL Matrigel were added to the top. The cells were cultured in 250 μL of 3D complete medium (Advanced DMEM/F12 supplemented with 1×N-2, 1×B-27, 1 mM N-acetylcysteine and 1% penicillin/streptomycin). The cells were treated with DMSO or testing compounds and total number of organoids with diameter greater than 50 μm were analyzed and manually counted using microscope.
After 3 days when organoids formed, fresh culture media were supplied, and compounds were added for additional 3 days. Organoid viability was measured using CellTiter-Glo® 3D Cell Viability Assay (Promega) following manufacturer's protocol.

[10] = tested on: Wnt signaling target genes c-Myc and axin2; assay: Western blotting of Wnt signaling target genes in LS174T cells; format: cell-based; details: 24 hours
Description: as §3

## CN(C)c1ccc2cc(-c3cn(C)c4ccccc34)c(N)nc2c1 [ISQ-1, N^7,N^7-Dimethyl-3-(1-methyl-1H-indol-3-yl)quinoline-2,7-diamine]
LS174T cells; 500 nM
  percentage inhibition of LS174T cell proliferation at 500 nM, compared among ISQs (FIG. 2B): more active
LS174T cells; Homo sapiens, LS174T, 120 h, 62 nM, 5 days
  inhibition at 0.062 µM: 16 ± 2%
LS174T cells; Homo sapiens, LS174T, 120 h, 125 nM, 5 days
  inhibition at 0.125 µM: 22 ± 5%
LS174T cells; Homo sapiens, LS174T, 120 h, 250 nM, 5 days
  inhibition at 0.25 µM: 38 ± 2.2%
LS174T cells; Homo sapiens, LS174T, 120 h, 500 nM, 5 days
  inhibition at 0.5 µM: 91 ± 4.3%
LS174T cells; Homo sapiens, LS174T, read-out: Inhibition % on LS174T cells Proliferation 0.3 uM Inhib. %
  inhibition at 0.3 µM: 83.9%
LS174T cells; Homo sapiens, LS174T, read-out: Inhibition % on LS174T cells Proliferation 1 uM Inhib. %
  inhibition at 1 µM: 92.7%
LS174T cells; Homo sapiens, LS174T, read-out: Inhibition % on LS174T cells Proliferation 3 uM Inhib. %
  inhibition at 3 µM: 99.3%
LS174T cells; LS174T, 5 days (FIG. 1B)
  inhibited in vitro cell growth: nanomolar concentrations
TOPFlash Wnt reporter
  TOPFlash Wnt reporter luciferase luminescence: inhibited TOPFlash Wnt reporter
[1]
  ETC complex V inhibition (oligomycin replaced with compound): did not inhibit ETC complex V
  uncoupler effect (FCCP replaced with compound): no uncouplers
[2]
  ETC complex V inhibition (oligomycin replaced with compound): did not inhibit ETC complex V
Plk1
  Plk1 expression upon drug treatment: induced
Solubility comparison
  solubility: better than that of ISQ-7
[3]; pyruvate substrate
  ETC complex I inhibition (pyruvate/NADH-linked respiration): inhibited complex I
[3]; succinate added
  inhibition of complexes II, III, or IV (respiration after succinate): ruled out the possibility that ISQ-1 inhibited complexes II, III, or IV
[4]
  inhibited in vitro cell growth: nanomolar concentrations
[5]
  inhibited in vitro cell growth: nanomolar concentrations
[6]
  inhibited in vitro cell growth: nanomolar concentrations
AMPK [7]
  AMPK signaling activation: less effective in activating AMPK signaling
AMPK [8]
  AMPK activation: activated AMPK in a dose-dependent manner
[9]; 3-day treatment after organoids formed
  organoid growth (CellTiter-Glo 3D viability): inhibited organoid growth in a dose-dependent manner
[9]; day 7
  tumor organoid formation from single cells: inhibited tumor organoid formation from single cells
[10]
  effect on Wnt signaling target genes c-Myc and axin2: inhibited
